The values below come from patent US20050027103A1, “Structural and cytoskeleton-associated protein” (priority 2001, published 2005).

This assay deals with expression of SEQ ID NO:33 in early confluent human C3C cells. Put plainly: Microarray analysis of SEQ ID NO:33 expression in response to a steroid. The class given is cell-based. As to conditions: 1, 10, and 100 μM beclomethasone for 1, 3, and 6 h. The method, then: Total RNA is isolated from tissue samples using the guanidinium thiocyanate method and poly(A)^+ RNA is purified using the oligo-(dT) cellulose method. Each poly(A)^+ RNA sample is reverse transcribed using MMLV reverse-transcriptase, 0.05 pg/μl oligo-(dT) primer (21mer), 1×first strand buffer, 0.03 units/μl RNase inhibitor, 500 μM DATP, 500 μM dGTP, 500 μM dTTP, 40 μM dCTP, 40 μM dCTP-Cy3 (BDS) or dCTP-Cy5 (Amersham Biosciences). The reverse transcription reaction is performed in a […] containing 200 ng poly(A)^+ RNA with GENBRIGHT kits (Incyte). Specific control poly(A)^+ RNAs are synthesized by int vitro transcription from non-coding yeast genomic DNA. After incubation at 37° C. for 2 hr, each reaction sample (one with Cy3 and another with Cy5 labeling) is treated with […] of 0.5M sodiumhydroxide and incubated for 20 minutes at 85° C. to the stop the reaction and degrade the RNA. […]
Sequences of the present invention are used to generate array elements. […] PCR amplification uses primers complementary to the vector sequences flanking the cDNA inset Array elements are amplified in thity cycles of PCR from an initial quantity of 1-2 ng to a final quantity greater than 5 μg. […]

Consider `C[C@H]1C[C@H]2[C@@H]3CCC4=CC(=O)C=C[C@]4(C)[C@@]3(Cl)[C@@H](O)C[C@]2(C)[C@@]1(O)C(=O)CO` [beclomethasone], for which the “expression of SEQ ID NO:33 decreased (microarray analysis)” value was “at least 2 fold”.
